Reference: patent publication US8030493B2, “Monovalent and divalent salts of N-(5-hydroxynicotinoil) -L-glutamic acid exhibiting psychotropic (antidepressant and anxiolytic), neuroprotective, geroprotective and cerebroprotective action” (Obschestvo S Ogranichennoy Otvetstvennostyu “Natsionalnaya …, priority 2006, dated 2011)
Where “and” joins values, the source holds several entries; their conditions need not be identical. Identical values can stand only once. Marks after values point to notes of the source that are not given here.

Assays:
[1] = test system: mice exposed to hypoxia in hermovolume; assay: Hypoxia with hypercapnia in hermovolume; assay type: in vivo
Description: White nondescript male mice with body weight 22-28 g were used in the experiments. Each dose level was studied in 10 animals. Control animals received equivalent volume of distilled water. Nooglutyl was used as reference agent. Study compounds were administered intraperitoneally 40 minutes before the experiment.
Acute hypobaric hypoxia was simulated in flow-exhaust chamber. Pressure was measured with altimeter, and elevation speed with variometer. The animals were “elevated” at the speed 20 m/s to the stage at 11000 m. The exposure lasted 10 minutes. Then the animals were mover down to the baseline level for 5 minutes. Hypoxia with hypercapnia in hermovolume was created by placement of the animal into 200 ml hermetically sealed glass vessels. Life period of the animals under hypoxic conditions was recorded. Each group comprised 10 animals.

[2] = test system: rats with hemorrhagic stroke; assay: Intracerebral posttraumatic hematoma (hemorrhagic stroke): survival; assay type: in vivo; conditions: 20 mg/kg single dose intraperitoneally 3-3.5 hours after surgery
From the text: (§1) White nondescript male rats with body weight 200-250 g, which lived in vivarium and had feed (standard palletized feed) and water ad libitum, with natural alternation of day and night, were used in the experiments. Hemorrhagic stroke (local cerebral hemorrhage) was simulated according to method by A. N. Makarenko et al. (Method of local hemorrhage simulation I various structures of the brain in experimental animals. Journal Visshei Nervnoy Deyatelnosti—Journal of Higher Nervous Activities, 2002, v. 52, No 6, p. 765-768). In nembutal-anesthetized rats (40 mg/kg, i.m.) destruction of the brain tissue in capsule interna area was made with the use of special device (mandarin-knife) followed by application of blood (0.02-0.03 ml) taken from under the rat's tongue to the damaged area (within 2-3 minutes). False-operated animals underwent scalping and craniotomy. The animals were divided into 5 groups: intact rats, false-operated rats, animals with hemorrhagic stroke received nooglutyl at 20 mg/kg, and animals with hemorrhagic stroke received Compound I at 20 mg/kg. Effects were recorded within 24 hours and 14 days after the surgery. Learning ability and memory of the rats was examined in the model of passive avoidance response (PAR, Passive Avoidance supplied by Lafayette Instrument Co., USA). To determine neurological deficit in the animals Stroke-index McGrow scale modified by I. V. Gannushkina (Functional architectonics of the brain, Moscow, Medicina, 1977, 224 p.) was used. The severity of the condition was determined by the sum of the points. The number of rats with mild symptoms up to 2.5 points of Stroke-index scale (apathy, weakness of the extremities, unilateral semiptosis, tremor, circus movements) and severe manifestations of neurological disorders (3 to 10 points)—paresis of the extremities, palsy of low extremities, lateral position. The animals received single dose of nooglutyl and Compound I at the same dose 20 mg/kg intraperitoneally within 3-3.5 hours after the surgery. Controlled animals were treated with saline. At onset of the experiment each group comprised 15-20 animals. Mortality of the rats was recorded throughout the observation period (14 days). Statistical analysis was made using parametrical and non-parametrical methods and Biostat software. Nimodipin administered at 01.mg/kg according to above scheme was considered as a standard.

[3] = test system: rats with hemorrhagic stroke; assay: Hemorrhagic stroke: neurological deficit (Stroke-index McGrow scale); assay type: in vivo; conditions: for Number of animals with neurological symptoms, %: Circus movements / Number of animals with neurological symptoms, %: Palsy of 1-4 extremities / Number of animals with neurological symptoms, %: Paresis of 1-4 extremities / Number of animals with neurological symptoms, %: Weakness of extremities: 20 mg/kg single dose intraperitoneally; for Rats with severe neurological symptoms: control with hemorrhagic stroke 60%
From the text: as §1

[4] = test system: rats with hemorrhagic stroke; assay: Hemorrhagic stroke: reproduction of passive avoidance response; assay type: in vivo; conditions: 20 mg/kg; for Increase of the share of rats with HS that retained the memory trace: PAR reproduction on Day 14, versus 8% of untreated rats with stroke
From the text: as §1

aged rats (24 months) = assay: Motor coordination of aged rats on rotating rod; assay type: in vivo; conditions: for Number of the animals (%), which obtained the skill, By attempt 5 / Number of the animals (%), which obtained the skill, By attempt 15 / Number of the animals (%), which obtained the skill, By attempt 10: aged rats 24 months, 20 mg/kg 60 days, rotating rod 2 minutes; for Number of the animals (%), which obtained the skill, By attempt 10: 20 mg/kg; for Number of attempts required for learning to 50% of the animals: aged rats treated for 2 months, untreated aged animals 17th attempt
Description: White nondescript male rats (Wistar line): to adult animals at age 3 months with body weight 250-300 g and aged 24 month old animals with body weight 350-450 g were used in the study. Nooglutyl at dose level 20 mg/kg and Compound I were administered to aged rats intraperitoneally for 2 months followed by assessment of the effect on learning capacity impaired by age and neurological deficit. Analysis of variance with Student's test, variant portion method and U-test were employed for data processing.
To assess neurological deficit in aged animals (disturbed coordination and capacity for learning motor responses) the rats were placed on the rotating rod. The number of attempts required to obtain the skill of holding on the rotating rod for 2 minutes was registered. […] Under similar conditions only 25% of aged rats obtained this skill starting from the 11th-14th attempt. […] 60% of aged rats treated with nooglutyl and 66% of aged rats treated with Compound I for 2 months learned the skill by the 10th attempt.

in vivo = conditions: male, white nondescript (outbred), mouse, ip
Description: The study of acute daily toxicity of Compound I was carried out on white nondescript male mice with body weight 25-28 g, which lived in habitual conditions in vivarium and received feed and water ad libitum. Single dose of Compound I was administered intraperitoneally. The animals were under observation for 2 days after the dosing. The dose levels of Compound I used in the toxicity study were as follows: 800 mg/kg, 1000 mg/kg, 1200 mg/kg, 1500 mg/kg, 1600 mg/kg. Compound I was dissolved in distilled water and administered in 0, 1 ml per 10 g of the body weight of the animal when the doses 800 mg/kg and 1000 mg/kg, and in 0.2 ml per 10 g of the body weight when the doses 1200 mg/kg, 1500 mg/kg, 1600 mg/kg were used. Control animals received distilled water in the volume 0.2 ml per 10 g of the body weight.
Each dose group comprised 10 animals.

[5] = 30 mg/kg intraperitoneally 40 minutes before the experiment
[6] = 60 mg/kg intraperitoneally 40 minutes before the experiment
[7] = 120 mg/kg intraperitoneally 40 minutes before the experiment
[8] = PAR reproduction within 24 hours
[9] = PAR reproduction within 14 days

Row | Compound | Life interval of mice (minutes) exposed to hypoxia in hermovolume [1, 5] | Life interval of mice (minutes) exposed to hypoxia in hermovolume [1, 6] | Life interval of mice (minutes) exposed to hypoxia in hermovolume [1, 7] | Number of animals which died in relation to total number of operated animals, absolute, Day 1 after surgery [2] | Number of animals which died in relation to total number of operated animals, absolute, Day 3 after surgery [2] | Number of animals which died in relation to total number of operated animals, absolute, Day 7 after surgery [2] | Number of animals which died in relation to total number of operated animals, absolute, Day 14 after surgery [2] | Number of animals which died, %, Day 1 after surgery [2] | Number of animals which died, %, Day 3 after surgery [2] | Number of animals which died, %, Day 7 after surgery [2] | Number of animals which died, %, Day 14 after surgery [2] | Number of animals with neurological symptoms, %: Circus movements ([3]; Day 1) | Number of animals with neurological symptoms, %: Palsy of 1-4 extremities ([3]; Day 1) | Number of animals with neurological symptoms, %: Paresis of 1-4 extremities ([3]; Day 1) | Number of animals with neurological symptoms, %: Weakness of extremities ([3]; Day 1) | Number of animals with neurological symptoms, %: Circus movements ([3]; Day 14) | Number of animals with neurological symptoms, %: Palsy of 1-4 extremities ([3]; Day 14) | Number of animals with neurological symptoms, %: Paresis of 1-4 extremities ([3]; Day 14) | Number of animals with neurological symptoms, %: Weakness of extremities ([3]; Day 14) | Rats with severe neurological symptoms ([3]; Day 14) | other results
1 | O=C([O-])CC[C@H](NC(=O)c1cncc(O)c1)C(=O)[O-].[Ca+2] [Compound I, Calcium N-(5-hydroxynicotinoyl)-L-glutamate] | 16.2 ± 0.31 min | 17.8 ± 0.41 min | 18.1 ± 0.48 min | 1 of 20 | 2 of 20 | 2 of 20 | 2 of 20 | 5% | 10## % | 10## % | 10% | 10% | 0% | 10% | 20* % | 10% | 0% | 5* % | 0% | 15% | Number of animals which died, %, Day 14 after surgery ([2]; listed as compound I): 10## %; Increase of the share of rats with HS that retained the memory trace [4]: 6.5 fold; Latent period of entry to dark chamber (c) [4, 8]: 128.1 ± 17.6 c; Number of animals, which did not enter dark chamber (%) [4, 8]: 63%; Latent period of entry to dark chamber (c) [4, 9]: 98.9 ± 21.3 c; Number of animals, which did not enter dark chamber (%) [4, 9]: 52$$ %; Number of the animals (%), which obtained the skill, By attempt 5 (aged rats (24 months)): 20%; Number of the animals (%), which obtained the skill, By attempt 15 (aged rats (24 months)): 66# %; Number of the animals (%), which obtained the skill, By attempt 10 (aged rats (24 months)): 66% and 60# %; Number of attempts required for learning to 50% of the animals (aged rats (24 months)): 6 attempt; LD50 at 2 days (in vivo): 1150 mg/kg
2 | O=C(O)CC[C@H](NC(=O)c1cncc(O)c1)C(=O)O [Nooglutyl, N-(5-hydroxynicotinoyl)-L-glutamic acid, reference compound] | 13.9 ± 0.42 min | 15.2 ± 0.39 min | 16.4 ± 0.53 min | 3 of 20 | 4 of 20 | 4 of 20 | 4 of 20 | 15% | 20# % | 20# % | 20% | 5% | 0% | 25% | 30* % | 0% | 0% | 20* % | 10% | 25% | Number of animals which died, %, Day 14 after surgery ([2]; listed as nooglutyl): 20## %; Increase of the share of rats with HS that retained the memory trace [4]: 5 fold; Latent period of entry to dark chamber (c) [4, 8]: 130.4 ± 20.1 c; Number of animals, which did not enter dark chamber (%) [4, 8]: 64%; Latent period of entry to dark chamber (c) [4, 9]: 92.2 ± 18.2 c; Number of animals, which did not enter dark chamber (%) [4, 9]: 40$ %; Number of the animals (%), which obtained the skill, By attempt 5 (aged rats (24 months)): 20%; Number of the animals (%), which obtained the skill, By attempt 15 (aged rats (24 months)): 60# %; Number of the animals (%), which obtained the skill, By attempt 10 (aged rats (24 months)): 60# %; Number of the animals (%), which obtained the skill, By attempt 10 (aged rats (24 months); listed as nooglutyl): 60%; Number of attempts required for learning to 50% of the animals (aged rats (24 months)): 7 attempt; LD50 at 2 days (in vivo): 1200 mg/kg
